Data on one substance can be found in patent publication US11213555B2, “Intravenous injection for enhancing immune function” (priority 2016, dated 2022).

Where two headings read alike, the source gives them in different places. Ends that are not written are not given here.

Assay [1] concerns monocytes-macrophages. As to the kind of experiment: Carbon clearance assay, phagocytosis of monocytes-macrophages in normal mice. Particulars: normal Kunming mice; 0.2 mg/kg via tail vein, once a day for five days; 2 h after last dose.
Assay [2] is described as follows: Spleen index (immune organ index) in immunosuppressed mouse models. Particulars: immunosuppressed mice (dexamethasone 40 mg/kg i.p., five days); 0.2 mg/kg via tail vein, once a day for five days.
Assay [3] can be described thus: Spleen index (immune organ index) in normal mice. The following applies: 0.2 mg/kg via tail vein, once a day for five days, 2 h after last dose.
Assay [4] relates to monocytes-macrophages. Particulars: immunosuppressed mice (dexamethasone 40 mg/kg i.p., five days); 0.2 mg/kg via tail vein, once a day for five days.
Assay [5] has as its system Ehrlich ascites carcinoma. As to the kind of experiment: Body weight gain and spleen index of Ehrlich ascites carcinoma mice. Particulars: EAC ICR mice; 0.2 mg/kg via tail vein, one day before inoculation then 7 consecutive days.

For the substance RKDVY [Thymopentin, thymopentin], the “Carbon clearance index K × 10^3” value in the assay with monocytes-macrophages [1] was 4.874 ± 0.582 ^; in the assay on monocytes-macrophages [4] it was 7.773 ± 1.018^ΔΔ. The “Spleen index (%)” value in assay [2] is listed as 0.546 ± 0.097^ΔΔ %; in assay [3] it was 0.642 ± 0.091%; in assay [5], 0.221 ± 0.036%. The “Body weight gain” value in assay [5] amounted to 6.190 ± 2.087 g.
